Measured values published in US11603349B2, “Anti-fibrotic compounds” (Certa Therapeutics Pty Ltd, priority 2017, dated 2023).
pIC50: −log10 of the molar value.

Columns and labels:
[1] = tested on: TGF-β induced [14C]-proline incorporation in rat mesangial cells; assay: [14C]-proline incorporation assay (collagen biosynthesis); assay type: cell-based; conditions: Rattus norvegicus, Mesangial cell, 44 h, inhibition of TGF-β1 (1 ng/ml) induced [14C]-proline incorporation, IRMC cells
[2] = MTS tetrazolium reduction cell viability assay; conditions: rat, rat mesangial cells (1097/IRMC cells), TGF-β1 stimulated, CC50 (μM), vs 1% DMSO vehicle

SMILES	pIC50 [1]	CC50 at 48 h [2]
C#CCOc1ccc(/C=C/C(=O)Nc2ccccc2C(=O)NC2COC2)cc1OC [Example 38, (E)-2-(3-(3-methoxy-4-(prop-2-yn-1-yloxy)phenyl)acrylamido)-N-(oxetan-3-yl)benzamide]	4.42	236 µM
C#CCOc1ccc(/C=C/C(=O)Nc2ccccc2C(=O)NCC2CCOC2)cc1OC (stereo not drawn) [Example 39, (E)-2-(3-(3-methoxy-4-(prop-2-yn-1-yloxy)phenyl)acrylamido)-N-((tetrahydrofuran-3-yl)methyl)benzamide]	4.32	85.8 µM
C#CCOc1ccc(/C=C/C(=O)Nc2ccccc2C(=O)NCc2cncn2C)cc1OC [Example 40, (E)-2-(3-(3-methoxy-4-(prop-2-yn-1-yloxy)phenyl)acrylamido)-N-((1-methyl-1H-imidazol-5-yl)methyl)benzamide]	5.17	> 300 µM
C#CCOc1ccc(/C=C/C(=O)Nc2ccccc2C(=O)NCc2ccccn2)cc1OC [Example 41, (E)-2-(3-(3-methoxy-4-(prop-2-yn-1-yloxy)phenyl)acrylamido)-N-(pyridin-2-ylmethyl)benzamide]	4.60	341 µM
C#CCOc1ccc(/C=C/C(=O)Nc2ccccc2C(=O)NCCc2ccccn2)cc1OC [Example 42, (E)-2-(3-(3-methoxy-4-(prop-2-yn-1-yloxy)phenyl)acrylamido)-N-(2-(pyridin-2-yl)ethyl)benzamide]	4.77	52 µM
C#CCOc1ccc(/C=C/C(=O)Nc2ccccc2C(=O)NCc2cccnc2)cc1OC [Example 43, (E)-2-(3-(3-methoxy-4-(prop-2-yn-1-yloxy)phenyl)acrylamido)-N-(pyridin-3-ylmethyl)benzamide]	4.35	> 300 µM
C#CCOc1ccc(/C=C/C(=O)Nc2ccccc2C(=O)Nc2ccncc2)cc1OC [Example 44, (E)-2-(3-(3-methoxy-4-(prop-2-yn-1-yloxy)phenyl)acrylamido)-N-(pyridin-4-yl)benzamide]	4.88	11.1 µM
C#CCOc1ccc(/C=C/C(=O)Nc2ccccc2C(=O)NCc2ccncc2)cc1OC [Example 45, (E)-2-(3-(3-methoxy-4-(prop-2-yn-1-yloxy)phenyl)acrylamido)-N-(pyridin-4-ylmethyl)benzamide]	4.89	307 µM
C#CCOc1ccc(/C=C/C(=O)Nc2ccccc2C(=O)NCCc2ccncc2)cc1OC [Example 46, (E)-2-(3-(3-methoxy-4-(prop-2-yn-1-yloxy)phenyl)acrylamido)-N-(2-(pyridin-4-yl)ethyl)benzamide]	4.33	186 µM
C#CCOc1ccc(/C=C/C(=O)Nc2ccccc2C(=O)Nc2cnn(C)c2)cc1OC [Example 47, (E)-2-(3-(3-methoxy-4-(prop-2-yn-1-yloxy)phenyl)acrylamido)-N-(1-methyl-1H-pyrazol-4-yl)benzamide]	4.54	> 300 µM
C#CCOc1ccc(/C=C/C(=O)Nc2ccccc2C(=O)Nc2ccn(C)n2)cc1OC [Example 48, (E)-2-(3-(3-methoxy-4-(prop-2-yn-1-yloxy)phenyl)acrylamido)-N-(1-methyl-1H-pyrazol-3-yl)benzamide]	4.62	309 µM
C#CCOc1ccc(/C=C/C(=O)Nc2ccccc2C(=O)NC2CCNCC2)cc1OC [Example 49, (E)-2-(3-(3-methoxy-4-(prop-2-yn-1-yloxy)phenyl)acrylamido)-N-(piperidin-4-yl)benzamide]	4.60	30.6 µM
COc1cc(/C=C/C(=O)Nc2ccccc2C(=O)O)ccc1OCC1CCNCC1 [Example 50, (E)-2-(3-(3-methoxy-4-(piperidin-4-ylmethoxy)phenyl)acrylamido)benzoic acid]	4.32	107 µM
COc1cc(/C=C/C(=O)Nc2ccccc2C(=O)O)ccc1OC1CCN(C)C1 (stereo not drawn) [Example 51, (E)-2-(3-(3-methoxy-4-((1-methylpyrrolidin-3-yl)oxy)phenyl)acrylamido)benzoic acid]	4.81	> 300 µM
COc1cc(/C=C/C(=O)Nc2ccccc2C(=O)O)ccc1OCc1c(C)noc1C [Example 52, (E)-2-(3-(4-((3,5-dimethylisoxazol-4-yl)methoxy)-3-methoxyphenyl)acrylamido)benzoic acid]	4.95	140 µM
COc1cc(/C=C/C(=O)Nc2ccccc2C(=O)O)ccc1OCc1cnn(C)c1 [Example 53, (E)-2-(3-(3-methoxy-4-((1-methyl-1H-pyrazol-4-yl)methoxy)phenyl)acrylamido)benzoic acid]	4.83	226 µM
COc1cc(/C=C/C(=O)Nc2ccccc2C(=O)O)ccc1OCC1COC1 [Example 54, (E)-2-(3-(3-methoxy-4-(oxetan-3-ylmethoxy)phenyl)acrylamido)benzoic acid]	4.62	> 300 µM
COc1cc(/C=C/C(=O)Nc2ccccc2C(=O)O)ccc1OCc1ccccn1 [Example 55, (E)-2-(3-(3-methoxy-4-(pyridin-2-ylmethoxy)phenyl)acrylamido)benzoic acid]	4.35	86.1 µM

SMILES	pIC50 [1]	CC50 at 48 h [2]
COc1cc(/C=C/C(=O)Nc2ccccc2C(=O)O)ccc1OCCc1ccccn1 [Example 56, (E)-2-(3-(3-methoxy-4-(2-(pyridin-2-yl)ethoxy)phenyl)acrylamido)benzoic acid]	4.49	150 µM
COc1cc(/C=C/C(=O)Nc2ccccc2C(=O)O)ccc1OCCc1cccnc1 [Example 57, (E)-2-(3-(3-methoxy-4-(2-(pyridin-3-yl)ethoxy)phenyl)acrylamido)benzoic acid]	5.03	> 76.6 µM
COc1cc(/C=C/C(=O)Nc2ccccc2C(=O)O)ccc1OCc1ccncc1 [Example 58, (E)-2-(3-(3-methoxy-4-(pyridin-4-ylmethoxy)phenyl)acrylamido)benzoic acid]	4.41	266 µM
COc1cc(/C=C/C(=O)Nc2ccccc2C(=O)O)ccc1OCCc1ccncc1 [Example 59, (E)-2-(3-(3-methoxy-4-(2-(pyridin-4-yl)ethoxy)phenyl)acrylamido)benzoic acid]	4.92	148 µM
COc1cc(/C=C/C(=O)Nc2ccccc2C(=O)O)ccc1OCc1ccnn1C [Example 60, (E)-2-(3-(3-methoxy-4-((1-methyl-1H-pyrazol-5-yl)methoxy)phenyl)acrylamido)benzoic acid]	4.69	100 µM
COCCOc1cc(/C=C/C(=O)Nc2ccccc2C(=O)O)ccc1OC [Example 61, (E)-2-(3-(4-methoxy-3-(2-methoxyethoxy)phenyl)acrylamido)benzoic acid]	4.31	276 µM
COc1ccc(/C=C/C(=O)Nc2ccccc2C(=O)O)cc1OCCc1ccccn1 [Example 62, (E)-2-(3-(4-methoxy-3-(2-(pyridin-2-yl)ethoxy)phenyl)acrylamido)benzoic acid]	4.31	321 µM
COc1ccc(/C=C/C(=O)Nc2ccccc2C(=O)O)cc1OCc1cccnc1 [Example 63, (E)-2-(3-(4-methoxy-3-(pyridin-3-ylmethoxy)phenyl)acrylamido)benzoic acid]	4.74	79.4 µM
COc1ccc(/C=C/C(=O)Nc2ccccc2C(=O)O)cc1OCCc1cccnc1 [Example 64, (E)-2-(3-(4-methoxy-3-(2-(pyridin-3-yl)ethoxy)phenyl)acrylamido)benzoic acid]	4.85	142 µM
COc1ccc(/C=C/C(=O)Nc2ccccc2C(=O)O)cc1OCCc1ccncc1 [Example 65, (E)-2-(3-(4-methoxy-3-(2-(pyridin-4-yl)ethoxy)phenyl)acrylamido)benzoic acid]	4.74	152 µM
COc1ccc(/C=C/C(=O)Nc2ccccc2C(=O)O)cc1OCc1cnn(C)c1 [Example 66, (E)-2-(3-(4-methoxy-3-((1-methyl-1H-pyrazol-4-yl)methoxy)phenyl)acrylamido)benzoic acid]	4.77	> 300 µM
COc1ccc(/C=C/C(=O)Nc2ccccc2C(=O)O)cc1OCc1ccnn1C [Example 67, (E)-2-(3-(4-methoxy-3-((1-methyl-1H-pyrazol-5-yl)methoxy)phenyl)acrylamido)benzoic acid]	4.63	144 µM
COc1cc(/C=C/C(=O)Nc2ccccc2C(=O)O)ccc1CN1CCN(C)CC1 [Example 68, (E)-2-(3-(3-methoxy-4-((4-methylpiperazin-1-yl)methyl)phenyl)acrylamido)benzoic acid]	4.35	> 300 µM
COc1cc(/C=C/C(=O)Nc2ccccc2C(=O)O)ccc1CN1CCOCC1 [Example 69, (E)-2-(3-(3-methoxy-4-(morpholinomethyl)phenyl)acrylamido)benzoic acid]	4.32	691 µM
COc1ccc(/C=C/C(=O)Nc2ccccc2C(=O)O)cc1COC1CCN(C)CC1 [Example 70, (E)-2-(3-(4-methoxy-3-(((1-methylpiperidin-4-yl)oxy)methyl)phenyl)acrylamido)benzoic acid]	4.30	> 300 µM
C#CCOCc1cc(/C=C/C(=O)Nc2ccccc2C(=O)O)ccc1OC [Example 71, (E)-2-(3-(4-methoxy-3-((prop-2-yn-1-yloxy)methyl)phenyl)acrylamido)benzoic acid]	4.91	116 µM
C#CCOCc1ccc(/C=C/C(=O)Nc2ccccc2C(=O)O)cc1OC [Example 72, (E)-2-(3-(3-methoxy-4-((prop-2-yn-1-yloxy)methyl)phenyl)acrylamido)benzoic acid]	4.82	> 300 µM
COCc1cc(/C=C/C(=O)Nc2ccccc2C(=O)O)ccc1OC [Example 73, (E)-2-(3-(4-methoxy-3-(methoxymethyl)phenyl)acrylamido)benzoic acid]	4.48	> 300 µM
